# Assay results published in paper PMC5701060, “Inhibition of the inflammatory response to stress by targeting interaction between PKR and its cellular activator PACT” (Scientific Reports, 2017).
# Molecular target: T1, PKR/PACT (GST-PKR-Nter / His-PACT) (Homo sapiens, UniProt O75569+P19525)
# T1 construct: gene EIF2AK2; PKR 1-265 (both DRBDs, no kinase domain) with N-terminal GST; full-length PACT with N-terminal His tag; E. coli
# Assay: HTRF protein-protein interaction assay
# Format: binding
# T1 sequence (P19525 1-265): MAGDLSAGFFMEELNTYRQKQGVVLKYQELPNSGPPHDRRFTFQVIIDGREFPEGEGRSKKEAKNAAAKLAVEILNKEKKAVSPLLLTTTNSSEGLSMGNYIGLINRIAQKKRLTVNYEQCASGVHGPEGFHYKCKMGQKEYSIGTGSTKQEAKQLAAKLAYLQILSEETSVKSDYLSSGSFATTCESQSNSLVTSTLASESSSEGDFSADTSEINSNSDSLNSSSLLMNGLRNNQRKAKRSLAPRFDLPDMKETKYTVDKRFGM
# T1 sequence (O75569 whole entry, the tested form may be a part): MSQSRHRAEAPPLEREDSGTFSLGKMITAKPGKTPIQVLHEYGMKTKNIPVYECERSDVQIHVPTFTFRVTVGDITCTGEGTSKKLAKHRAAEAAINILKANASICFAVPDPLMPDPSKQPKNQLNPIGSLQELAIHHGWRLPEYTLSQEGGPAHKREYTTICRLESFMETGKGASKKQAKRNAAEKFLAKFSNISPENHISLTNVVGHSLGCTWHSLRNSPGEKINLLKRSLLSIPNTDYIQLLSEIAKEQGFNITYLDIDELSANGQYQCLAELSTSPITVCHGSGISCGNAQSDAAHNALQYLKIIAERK
row,Compound,IC50
1,O=c1cc(-c2ccc(O)c(O)c2)oc2cc(O)cc(O)c12 [luteolin],50000 nM
2,O=c1c(O)c(-c2cc(O)c(O)c(O)c2)oc2cc(O)cc(O)c12 [myricetin],600 nM
3,O=c1c(O)c(-c2ccc(O)c(O)c2)oc2cc(O)cc(O)c12 [quercetin],2000 nM
